Data on one molecule can be found in ChEMBL document CHEMBL5728323, “1,4,5-substituted 1,2,3-triazole analogues as antagonists of the pregnane X receptor” (2021).

Test [1] in a line: Briefly, various concentrations (1-to-3 series dilutions for 10 concentration levels from 40 μM with 0.5% final DMSO concentration) of hPXR agonist rifampicin, various concentrations of tested chemicals alone or combined with 5 μM of rifampicin, were added to the wells of white 384-well tissue culture-treated plates with 5,000 cells in 25 μl of phenol red-free DMEM supplemented with 5% charcoal/dextran-treated FBS and incubated for 24 h at 37° C. before luciferase assay using Steadylite HTS (PerkinElmer Life Sciences). It counts as cell-based. The following applies: HepG2.

In turn, `COc1ccc(OC)c(-c2nc(C)c(C(=O)c3ccc(C(C)(C)C)cc3)n2C)c1` came in with an IC50 of 0.79 µM. For the same molecule, the half-maximal inhibitory concentration (IC50) in test [1] was determined as 3.1 µM.

One may read the IC50 as the midpoint of a concentration-inhibition curve.
